Data taken from patent EP4755890A1, “OXO-TRICYCLIC DERIVATIVE AND PHARMACEUTICAL USE THEREOF” (Haisco Pharmaceutical Group Co., Ltd., priority 2023, dated 2025).
Read-outs that look alike come from different tables or passages of the source.

What was measured:
[1] = Mouse pharmacokinetic assay; format: in vivo, Balb/c mice; conditions: for pharmacokinetic properties: mouse
Method: 4.1. Experimental animals: Male Balb/c mice, about 22 g, 6-8 weeks old, 6 mice/compound. The animals were purchased from CHENGDU DOSSY EXPERIMENTAL ANIMALS CO., LTD.
4.2. Experimental design: On the day of the experiment, the Balb/c mice were randomly grouped according to their body weights. The animals were fasted with water available for 12-14 h one day before the administration, and were fed 4 h after the administration. Table 4. Administration information
Vehicle for intravenous administration: 5% DMA + 5% Solutol + 90% Saline; and vehicle for intragastric administration: 5% DMSO + 95% (20% SBE-β-CD in Saline)
Before and after the administration, 0.03 ml of blood was taken from the orbit under isoflurane anesthesia and placed in an EDTAK2 centrifuge tube. The tube was centrifuged at 5000 rpm at 4°C for 10 min, and plasma was collected. The blood collection time points for the intravenous administration group and intragastric administration group were as follows: 0, 2 min, 5 min, 15 min, 30 min, 1 h, 2 h, 4 h, and 7 h. Before analysis and detection, all samples were stored at - 80°C. Table 5. Pharmacokinetic parameters of test compounds in mouse plasma

hERG potassium channel = target: T1, hERG potassium channel (Homo sapiens, UniProt Q12809); assay: hERG potassium channel activity assay (manual whole-cell patch clamp); format: cell-based
T1 construct: expressed in transfected cells
Description: Experimental platform: Manual electrophysiological patch-clamp system
Cell line: Chinese hamster ovary (CHO) cell line stably expressing hERG potassium channel
Experimental method: In Chinese Hamster Ovary (CHO) cells stably expressing hERG potassium channel, whole-cell patch-clamp technique was used to record hERG potassium channel current at room temperature. The glass microelectrodes were pulled from glass electrode blanks (BF150-86-10, Sutter) by a glass microelectrode puller. The tip resistance of the microelectrodes after being filled with intrapipette solution was about 2-5 MΩ. The glass microelectrodes were connected to the patch-clamp amplifier by inserting them into an amplifier probe. The clamping voltage and data recording were controlled and recorded by the pClamp 10 software through a computer, with a sampling frequency of 10 kHz and a filtering frequency of 2 kHz. […]
Compound IC50 was calculated using GraphPad Prism 5 software by fitting according to the following equation: Y = Bottom + (Top−Bottom)/(1+10^(∧)((LogIC50−X)*HillSlope)) [formula] where X is the Log value of the test compound concentration, Y is the inhibition percentage at the corresponding concentration, and Bottom and Top are the minimum and maximum inhibition percentage, respectively.

HT-29 cells = assay: HT-29 cell proliferation inhibition assay (CellTiter-Glo); format: cell-based; conditions: Homo sapiens, 96 h, 4 days, read-out: Inhibitory activity against HT-29 cell proliferation IC50
Method: The culture conditions for HT-29 cells were as follows: DMEM + 10% FBS + 1% penicillin-streptomycin, and the cells were cultured in an incubator with 5% CO2 at 37°C. On the first day, the HT-29 cells in the exponential growth phase were collected and plated in 96-well cell culture plates at a density of 1000 cells/well (180 µL/well). The plates were cultured overnight in an incubator with 5% CO2 at 37°C. T0 wells were plated simultaneously during the plating process. The next day, 20 µL of compounds at different concentrations were added to each well (nine compound concentration gradients, one DMSO well, and one blank well; each compound concentration was plated in triplicate), and the final concentration of DMSO in each well was 0.1%. The plates were cultured in an incubator with 5% CO2 at 37°C for 4 days. On the same day of compound addition, the T0 plate was detected using the CellTiter-Glo Kit, and the detected value was recorded as RLU0. After the culture was completed, 100 µL of detection solution (Cell Viability Assay, Promega) was added to each well. The plates were incubated at room temperature for 10 minutes with slow shaking. The chemiluminescence reading was read using a BMG microplate reader (PHERAstar FSX). The results were processed according to Formula (4) to calculate the proliferation inhibition rate of compounds at each concentration. Curve fitting was performed via a four-parameter logistic model using GraphPad Prism software, and the GI50 value (the concentration of the compound when the proliferation inhibition rate was 50%) was calculated. In the formula, RLUcompound is the readout of the drug-treated group, RLUcontrol is the average value of the compound vehicle control group, and RLUBlank is the average value of the blank control group. [formula]

[2] = Beagle dog pharmacokinetic assay; format: in vivo, Beagle dogs; conditions: po; Beagle dog plasma, i.g. (3 mg/kg)
Method: 7.1. Experimental animals: Male Beagle dogs, about 8-13 kg, 6 Beagle dogs/compound.
7.2. Experimental method: On the day of the experiment, the Beagle dogs were randomly grouped according to their body weights. The animals were fasted with water available for 14-18 h one day before the administration, and were fed 4 h after the administration. The animals were administered according to Table 6. Table 6. Administration information
Note: Vehicle for intravenous administration: 5% DMA + 5% Solutol + 90% Saline; and vehicle for intragastric administration: 5% DMSO + 95% (20% SBE-β-CD in Saline) (DMA: dimethylacetamide; Solutol: polyethylene glycol-15-hydroxystearate; Saline: normal saline; and MC: methylcellulose)
Before and after the administration, 1 ml of blood was taken from the jugular veins or limb veins and placed in an EDTAK2 centrifuge tube. The tube was centrifuged at 5000 rpm at 4°C for 10 min, and plasma was collected. The blood collection time points for the intravenous administration group and intragastric administration group were as follows: 0, 5 min, 15 min, 30 min, 1 h, 2 h, 4 h, 6 h, 8 h, 10 h, 12 h, 24 h, and 48 h. Before analysis and detection, all samples were stored at -80°C. The samples were analyzed quantitatively by LC-MS/MS. Table 7. Pharmacokinetic parameters of test compounds in Beagle dog plasma

T1 sequence (Q12809 whole entry): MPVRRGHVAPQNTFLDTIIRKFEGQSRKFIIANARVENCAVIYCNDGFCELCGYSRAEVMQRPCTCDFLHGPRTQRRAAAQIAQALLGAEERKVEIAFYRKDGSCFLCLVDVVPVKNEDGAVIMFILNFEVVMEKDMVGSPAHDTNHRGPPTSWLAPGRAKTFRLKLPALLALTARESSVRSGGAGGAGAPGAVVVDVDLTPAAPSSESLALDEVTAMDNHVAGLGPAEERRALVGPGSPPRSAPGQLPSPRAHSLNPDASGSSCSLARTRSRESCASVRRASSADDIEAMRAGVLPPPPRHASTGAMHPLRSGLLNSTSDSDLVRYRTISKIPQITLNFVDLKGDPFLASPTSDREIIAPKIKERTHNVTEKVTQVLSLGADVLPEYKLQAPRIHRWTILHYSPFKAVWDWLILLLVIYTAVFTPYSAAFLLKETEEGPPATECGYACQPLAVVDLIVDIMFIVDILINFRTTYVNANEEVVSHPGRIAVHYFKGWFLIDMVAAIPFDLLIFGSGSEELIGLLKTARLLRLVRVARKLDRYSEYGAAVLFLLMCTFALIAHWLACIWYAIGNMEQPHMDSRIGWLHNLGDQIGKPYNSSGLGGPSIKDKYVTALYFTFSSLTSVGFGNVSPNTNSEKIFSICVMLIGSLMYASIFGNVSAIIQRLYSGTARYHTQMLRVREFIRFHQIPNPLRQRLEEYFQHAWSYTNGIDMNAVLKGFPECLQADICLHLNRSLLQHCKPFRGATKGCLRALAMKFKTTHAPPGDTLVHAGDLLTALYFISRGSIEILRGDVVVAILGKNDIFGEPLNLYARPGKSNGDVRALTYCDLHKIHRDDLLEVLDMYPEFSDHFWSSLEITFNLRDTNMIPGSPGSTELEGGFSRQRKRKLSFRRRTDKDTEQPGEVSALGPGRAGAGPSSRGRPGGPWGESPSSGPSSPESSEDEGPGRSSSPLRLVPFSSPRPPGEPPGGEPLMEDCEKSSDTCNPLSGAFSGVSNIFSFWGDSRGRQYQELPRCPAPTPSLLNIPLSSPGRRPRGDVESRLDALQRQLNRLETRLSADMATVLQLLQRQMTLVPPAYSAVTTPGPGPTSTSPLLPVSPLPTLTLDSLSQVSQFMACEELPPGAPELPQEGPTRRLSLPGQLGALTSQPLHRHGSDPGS

## Cc1ncnc(C(=O)N2CCN(c3c4n(c5nc(C6=CCOCC6)nn5c3=O)C(C(=O)Nc3ccc(C(F)(F)F)cc3Cl)CCC4)C[C@H]2C)c1O (single isomer, unassigned) [Compound 8-B]
[1]; result in words
  pharmacokinetic properties: favorable
hERG potassium channel
  IC50: > 40 µM

## Cc1ncnc(C(=O)N2[C@@H](C)CN(c3c4n(c5nc(C6=CCOCC6)nn5c3=O)[C@@H](C(=O)Nc3ccc(C(F)(F)F)cc3Cl)CCC4)C[C@@H]2C)c1O [Compound 20-A]
[1]; po, mouse plasma, i.g. (10 mg/kg)
  AUC(0-t): 38500 ng·h/mL
[1]; po, mouse plasma, i.g. (10 mg/kg), read-out: F (%)
  bioavailability: 93.4%
[1]; result in words, in mice
  bioavailability: good
  exposure level: high
[1]; result in words
  pharmacokinetic properties: favorable
HT-29 cells
  IC50: ≥ 10 µM
[2]
  AUC(0-t): 19700 ng·h/mL

## Cc1ncnc(C(=O)N2CCN(c3c4n(c5nc(C6=CCOCC6)nn5c3=O)[C@@H](C(=O)Nc3ccc(C(F)(F)F)cc3Cl)CCC4)CC2)c1O [Compound 1-B]
[1]; result in words
  pharmacokinetic properties: favorable
HT-29 cells
  IC50: ≥ 10 µM
hERG potassium channel
  IC50: > 40 µM
[2]
  AUC(0-t): 19900 ng·h/mL
